Measurements taken from patent publication US9149038B2, “4-amino-6-(heterocyclic)picolinates and 6-amino-2-(heterocyclic)pyrimidine-4-carboxylates and their use as herbicides” (Dow AgroSciences LLC, priority 2013, dated 2015).
Read-outs that look alike come from different tables or passages of the source.

Tested on: Wheat and Barley and weed species
Experiment: Post-Emergent Test III: postemergent herbicidal activity in wheat and barley, visual rating after 21 d and probit GR20/GR50/GR80/GR90 (Tables 9-13)
Type: in vivo
Settings: for GR50 ALOMY / GR50 APESV / GR50 KCHSC / GR50 LOLSS / GR50 SETVI: growth reduction of 50%; for GR50 ALOMY / GR80 ALOMY / GR90 ALOMY / GR50 APESV / GR80 APESV / GR90 APESV / GR20 HORVS / GR50 KCHSC / GR80 KCHSC / GR90 KCHSC / GR50 LOLSS / GR80 LOLSS / GR90 LOLSS / GR50 SETVI / GR80 SETVI / GR90 SETVI / GR20 TRZAS: probit analysis; for GR80 ALOMY / GR80 APESV / GR80 KCHSC / GR80 LOLSS / GR80 SETVI: growth reduction of 80%; for GR90 ALOMY / GR90 APESV / GR90 KCHSC / GR90 LOLSS / GR90 SETVI: growth reduction of 90%; for GR20 HORVS / GR20 TRZAS: growth reduction of 20%; for pest or weed control at 17.5 g/ha / pest or weed control at 35 g/ha / pest or weed control at 70 g/ha: post-emergence, 504 h; for Visual Growth Reduction (%) 21 Days After Application KCHSC / GR50 KCHSC / GR80 KCHSC / GR90 KCHSC: KCHSC kochia (Kochia scoparia)
Excerpt: Herbicidal evaluations were made visually on a scale of 0 to 100 where 0 represents no activity and 100 represents complete plant death.
Seeds of the desired test plant species were planted in Sun Gro MetroMix® 306 planting mixture, which typically has a pH of 6.0 to 6.8 and an organic matter content of about 30 percent, in plastic pots with a surface area of 103.2 square centimeters (cm^2). When required to ensure good germination and healthy plants, a fungicide treatment and/or other chemical or physical treatment was applied. The plants were grown for 7-36 days (d) in a greenhouse with an approximate 14 hour (h) photoperiod which was maintained at about 18° C. during the day and 17° C. during the night. Nutrients and water were added on a regular basis and supplemental lighting was provided with overhead metal halide 1000-Watt lamps as necessary. The plants were employed for testing when they reached the second or third true leaf stage.
A weighed amount, determined by the highest rate to be tested, of each test compound was placed in a 25 mL glass vial and was dissolved in 4 mL of a 97:3 v/v mixture of acetone and DMSO to obtain concentrated stock solutions. […] The concentrated stock solutions obtained were diluted with 20 mL of an aqueous mixture containing acetone, water, isopropyl alcohol, DMSO, Agri-Dex crop oil concentrate, and X-77 surfactant in a 48:39:10:1.5:1.5:0.02 v/v ratio to obtain spray solutions containing the highest application rates. Additional application rates were obtained by serial dilution of 12 mL of the high rate solution into a solution containing 2 mL of a 97:3 v/v mixture of acetone and DMSO and 10 mL of an aqueous mixture containing acetone, water, isopropyl alcohol, DMSO, Agri-Dex crop oil concentrate, and X-77 surfactant in a 48:39:10:1.5:1.5:0.02 v/v ratio to obtain ½×, ¼×, ⅛× and 1/16× rates of the high rate. Compound requirements are based upon a 12 mL application volume at a rate of 187 liters per hectare (L/ha). Formulated compounds were applied to the plant material with an overhead Mandel track sprayer equipped with 8002E nozzles calibrated to deliver 187 L/ha over an application area of 0.503 square meters at a spray height of 18 inches (43 cm) above the average plant canopy height. Control plants were sprayed in the same manner with the solvent blank.
The treated plants and control plants were placed in a greenhouse as described above and watered by subirrigation to prevent wash-off of the test compounds. After 21 d, the condition of the test plants as compared with that of the untreated plants was determined visually and scored on a scale of 0 to 100 percent where 0 corresponds to no injury and 100 corresponds to complete kill and are presented as indicated in Table 4.
By applying the well-accepted probit analysis as described by J. Berkson in Journal of the American Statistical Society, 48, 565 (1953) and by D. Finney in “Probit Analysis” Cambridge University Press (1952), herbicidal injury of a specific compound at various rates can be used to calculate GR20, GR50, GR80 and GR90 values, which are defined as growth reduction factors that correspond to the effective dose of herbicide required to provide plant growth reduction (GR) of 20 percent, 50 percent, 80 percent and 90 percent, respectively. Probit analysis was applied to data collected from multiple dose rates of individual compounds utilizing the procedures explained in the following examples. The data for some of the dose rates and analysis of all of the dose rates are captured in the following tables.

[1] = ALOMY black-grass (Alopecurus myosuroides)
[2] = APESV bentgrass (Apera spica-venti)
[3] = Hordeum vulgare, HORVS barley, spring (crop), 17.5 g ai/ha, read-out: Visual Growth Reduction (%) 21 Days After Application HORVS
[4] = Hordeum vulgare, HORVS barley, spring (crop), 35 g ai/ha, read-out: Visual Growth Reduction (%) 21 Days After Application HORVS
[5] = Hordeum vulgare, HORVS barley, spring (crop), 70 g ai/ha, read-out: Visual Growth Reduction (%) 21 Days After Application HORVS
[6] = SETVI green foxtail (Setaria viridis)
[7] = Triticum aestivum, TRZAS wheat, spring (crop), 17.5 g ai/ha, read-out: Visual Growth Reduction (%) 21 Days After Application TRZAS
[8] = Triticum aestivum, TRZAS wheat, spring (crop), 35 g ai/ha, read-out: Visual Growth Reduction (%) 21 Days After Application TRZAS
[9] = Triticum aestivum, TRZAS wheat, spring (crop), 70 g ai/ha, read-out: Visual Growth Reduction (%) 21 Days After Application TRZAS
[10] = ALOMY black-grass (Alopecurus myosuroides), 17.5 g ai/ha, read-out: Visual Growth Reduction (%) 21 Days After Application ALOMY
[11] = ALOMY black-grass (Alopecurus myosuroides), 35 g ai/ha, read-out: Visual Growth Reduction (%) 21 Days After Application ALOMY
[12] = ALOMY black-grass (Alopecurus myosuroides), 70 g ai/ha, read-out: Visual Growth Reduction (%) 21 Days After Application ALOMY
[13] = APESV bentgrass (Apera spica-venti), 17.5 g ai/ha, read-out: Visual Growth Reduction (%) 21 Days After Application APESV
[14] = APESV bentgrass (Apera spica-venti), 35 g ai/ha, read-out: Visual Growth Reduction (%) 21 Days After Application APESV
[15] = APESV bentgrass (Apera spica-venti), 70 g ai/ha, read-out: Visual Growth Reduction (%) 21 Days After Application APESV
[16] = LOLSS ryegrass, 17.5 g ai/ha, read-out: Visual Growth Reduction (%) 21 Days After Application LOLSS
[17] = LOLSS ryegrass, 35 g ai/ha, read-out: Visual Growth Reduction (%) 21 Days After Application LOLSS
[18] = LOLSS ryegrass, 70 g ai/ha, read-out: Visual Growth Reduction (%) 21 Days After Application LOLSS
[19] = SETVI green foxtail (Setaria viridis), 17.5 g ai/ha, read-out: Visual Growth Reduction (%) 21 Days After Application SETVI
[20] = SETVI green foxtail (Setaria viridis), 35 g ai/ha, read-out: Visual Growth Reduction (%) 21 Days After Application SETVI
[21] = SETVI green foxtail (Setaria viridis), 70 g ai/ha, read-out: Visual Growth Reduction (%) 21 Days After Application SETVI

Compound	GR50 ALOMY [1]	GR80 ALOMY [1]	GR90 ALOMY [1]	GR50 APESV [2]	GR80 APESV [2]	GR90 APESV [2]	GR20 HORVS (HORVS barley, spring (crop))	pest or weed control at 17.5 g/ha [3]	pest or weed control at 35 g/ha [4]	pest or weed control at 70 g/ha [5]	Visual Growth Reduction (%) 21 Days After Application KCHSC (17.5 g ai/ha)	Visual Growth Reduction (%) 21 Days After Application KCHSC (35 g ai/ha)	Visual Growth Reduction (%) 21 Days After Application KCHSC (70 g ai/ha)	GR50 KCHSC	GR80 KCHSC	GR90 KCHSC	GR50 LOLSS (LOLSS ryegrass)	GR80 LOLSS (LOLSS ryegrass)	GR90 LOLSS (LOLSS ryegrass)	GR50 SETVI [6]	further results
COC(=O)c1nc(-c2ccc3c(c2)OC(C)(C)O3)c(F)c(N)c1Cl [Compound 8]	>70 g ai/ha	>70 g ai/ha	>70 g ai/ha	22 g ai/ha	36 g ai/ha	46 g ai/ha	7 g ai/ha	30 to 44%	60 to 74%	60 to 74%	E (45-59)	D (60-74)	D (60-74)	21 g ai/ha	>70 g ai/ha	>70 g ai/ha	>70 g ai/ha	>70 g ai/ha	>70 g ai/ha	11 g ai/ha	GR80 SETVI [6]: 72 g ai/ha; GR90 SETVI [6]: >70 g ai/ha; GR20 TRZAS (TRZAS wheat, spring (crop)): 6 g ai/ha; pest or weed control at 17.5 g/ha [7]: 30 to 44%; pest or weed control at 35 g/ha [8]: 60 to 74%; pest or weed control at 70 g/ha [9]: 60 to 74%; pest or weed control at 17.5 g/ha [10]: 0 to 29%; pest or weed control at 35 g/ha [11]: 30 to 44%; pest or weed control at 70 g/ha [12]: 45 to 59%; pest or weed control at 17.5 g/ha [13]: 0 to 29%; pest or weed control at 35 g/ha [14]: 85 to 94%; pest or weed control at 70 g/ha [15]: 85 to 94%; pest or weed control at 17.5 g/ha [16]: 0 to 29%; pest or weed control at 35 g/ha [17]: 0 to 29%; pest or weed control at 70 g/ha [18]: 30 to 44%; pest or weed control at 17.5 g/ha [19]: 60 to 74%; pest or weed control at 35 g/ha [20]: 75 to 84%; pest or weed control at 70 g/ha [21]: 75 to 84%
COC(=O)c1nc(-c2cc3c(cc2F)OC(F)(F)O3)c(F)c(N)c1Cl [Compound 9]	13 g ai/ha	26 g ai/ha	38 g ai/ha	30 g ai/ha	61 g ai/ha	89 g ai/ha	3 g ai/ha	60 to 74%	85 to 94%	85 to 94%	G (0-29)	G (0-29)	G (0-29)	>70 g ai/ha	>70 g ai/ha	>70 g ai/ha	70 g ai/ha	>70 g ai/ha	>70 g ai/ha	21 g ai/ha	GR80 SETVI [6]: 46 g ai/ha; GR90 SETVI [6]: 71 g ai/ha; GR20 TRZAS (TRZAS wheat, spring (crop)): 4 g ai/ha; pest or weed control at 17.5 g/ha [7]: 60 to 74%; pest or weed control at 35 g/ha [8]: 75 to 84%; pest or weed control at 70 g/ha [9]: 75 to 84%; pest or weed control at 17.5 g/ha [10]: 75 to 84%; pest or weed control at 35 g/ha [11]: 85 to 94%; pest or weed control at 70 g/ha [12]: 85 to 94%; pest or weed control at 17.5 g/ha [13]: 0 to 29%; pest or weed control at 35 g/ha [14]: 60 to 74%; pest or weed control at 70 g/ha [15]: 75 to 84%; pest or weed control at 17.5 g/ha [16]: 0 to 29%; pest or weed control at 35 g/ha [17]: 0 to 29%; pest or weed control at 70 g/ha [18]: 45 to 59%; pest or weed control at 17.5 g/ha [19]: 45 to 59%; pest or weed control at 35 g/ha [20]: 75 to 84%; pest or weed control at 70 g/ha [21]: 85 to 94%
